This is an account of results in article PMC10892423 (Pharmaceutics, 2024).

The assay deals with MBL-producing P. aeruginosa clinical isolates. The assay is described as follows: MIC by broth microdilution (CLSI). The class given is cell-based, Pseudomonas aeruginosa. The note with it: for MIC: Pseudomonas aeruginosa. As to the method: The DMSO stock solutions of the test compounds were serially diluted to the desired concentrations in CAMHB. Then, 10 μL of the bacterial suspension (5 × 10^5 colony forming units (CFU)/mL) was combined with 200 μL of DMSO stock solutions of the test compounds in 96-well microtiter plates (1% DMSO, final). After the incubation of the plate at 37 °C for 24 h, bacterial growth was visibly evaluated by monitoring the turbidity of the resulting suspension, and the MICs were determined as the lowest concentrations of the test compounds that inhibited the visible growth of the bacteria.
(In broth dilution the organism is exposed to a series of concentrations in liquid medium.)

In brackets after ≈: the same amount, converted by molar mass. Where only a bound is given, the exact number is not on record here.

Regarding `NCC[C@H](O)C(=O)N[C@@H]1C[C@H](N)[C@@H](O[C@H]2O[C@H](CN)[C@@H](O)[C@H](O)[C@H]2O)[C@H](O)[C@H]1O[C@H]1O[C@H](CO)[C@@H](O)[C@H](N)[C@H]1O` [AMK, amikacin], the MIC (commonly the least concentration at which growth counts as inhibited) was above 32 µg/mL (PA-001, blaNDM); above 32 µg/mL (PA-002, blaIMP); above 32 µg/mL (PA-007, blaNDM); above 32 µg/mL (PA-008, blaNDM); above 32 µg/mL (PA-011, blaNDM); at most 4 µg/mL (PA-012, blaNDM). In addition, the MIC reads like this: (PA-016, blaIMP) above 32 µg/mL; (PA-017, blaNDM) above 32 µg/mL; (PA-019, blaNDM) above 32 µg/mL; (PA-020, blaNDM) above 32 µg/mL; (PA-023, blaNDM) above 32 µg/mL; (PA-025, blaNDM) above 32 µg/mL. Besides, the MIC (PA-027, blaIMP) is above 32 µg/mL; the MIC (PA-028, blaNDM) is above 32 µg/mL; the MIC (PA-029, blaIMP) was above 32 µg/mL; the MIC (PA-030, blaIMP) was above 32 µg/mL; the MIC (PA-034, blaNDM) was above 32 µg/mL; the MIC (PA-036, blaNDM) is above 32 µg/mL. The MIC reads like this: (PA-038, blaNDM) above 32 µg/mL; (PA-039, blaNDM) at most 4 µg/mL; (PA-044, blaNDM) above 32 µg/mL.
`CC(C)(O/N=C(\C(=O)N[C@@H]1C(=O)N2C(C(=O)[O-])=C(C[n+]3ccccc3)CS[C@H]12)c1csc(N)n1)C(=O)O` [CAZ, ceftazidime]: the MIC reads like this: (PA-001, blaNDM) above 16 µg/mL; (PA-002, blaIMP) above 16 µg/mL; (PA-007, blaNDM) above 16 µg/mL; (PA-008, blaNDM) above 16 µg/mL; (PA-011, blaNDM) above 16 µg/mL; (PA-012, blaNDM) above 16 µg/mL. Besides, the MIC is, setting by setting: (PA-016, blaIMP) above 16 µg/mL; (PA-017, blaNDM) above 16 µg/mL; (PA-019, blaNDM) above 16 µg/mL; (PA-020, blaNDM) above 16 µg/mL; (PA-023, blaNDM) above 16 µg/mL; (PA-025, blaNDM) above 16 µg/mL. Moreover, the minimum inhibitory concentration (MIC) reads like this: (PA-027, blaIMP) above 16 µg/mL; (PA-028, blaNDM) above 16 µg/mL; (PA-029, blaIMP) above 16 µg/mL; (PA-030, blaIMP) above 16 µg/mL; (PA-034, blaNDM) above 16 µg/mL; (PA-036, blaNDM) above 16 µg/mL. Besides, the MIC is above 16 µg/mL (PA-038, blaNDM); above 16 µg/mL (PA-039, blaNDM); above 16 µg/mL (PA-044, blaNDM).
For `CO/N=C(\C(=O)N[C@@H]1C(=O)N2C(C(=O)[O-])=C(C[N+]3(C)CCCC3)CS[C@H]12)c1csc(N)n1` [FEP, cefepime], the MIC by setting is: (PA-001, blaNDM) above 16 µg/mL; (PA-002, blaIMP) above 16 µg/mL; (PA-007, blaNDM) 16 µg/mL (≈ 33.3 µM); (PA-008, blaNDM) above 16 µg/mL; (PA-011, blaNDM) above 16 µg/mL; (PA-012, blaNDM) above 16 µg/mL. The MIC (PA-016, blaIMP) is above 16 µg/mL; the MIC (PA-017, blaNDM) is above 16 µg/mL; the MIC (PA-019, blaNDM) was above 16 µg/mL; the MIC (PA-020, blaNDM) came to 16 µg/mL (≈ 33.3 µM); the MIC (PA-023, blaNDM) is above 16 µg/mL; the MIC (PA-025, blaNDM) was above 16 µg/mL. Further, the MIC is, setting by setting: (PA-027, blaIMP) above 16 µg/mL; (PA-028, blaNDM) above 16 µg/mL; (PA-029, blaIMP) above 16 µg/mL; (PA-030, blaIMP) above 16 µg/mL; (PA-034, blaNDM) above 16 µg/mL; (PA-036, blaNDM) above 16 µg/mL. Moreover, the MIC (PA-038, blaNDM) is above 16 µg/mL; the MIC (PA-039, blaNDM) was above 16 µg/mL; the MIC (PA-044, blaNDM) was above 16 µg/mL.
As for `CNC(C)C1CCC(N)C(OC2C(N)CC(N)C(OC3OCC(C)(O)C(NC)C3O)C2O)O1` (stereo not drawn) [GEN, gentamicin], the MIC by setting is: (PA-001, blaNDM) above 8 µg/mL; (PA-002, blaIMP) above 8 µg/mL; (PA-007, blaNDM) above 8 µg/mL; (PA-008, blaNDM) above 8 µg/mL; (PA-011, blaNDM) above 8 µg/mL; (PA-012, blaNDM) 8 µg/mL (≈ 16.8 µM). In addition, the MIC (PA-016, blaIMP) is above 8 µg/mL; the MIC (PA-017, blaNDM) was above 8 µg/mL; the MIC (PA-019, blaNDM) was above 8 µg/mL; the MIC (PA-020, blaNDM) was above 8 µg/mL; the MIC (PA-023, blaNDM) was above 8 µg/mL; the MIC (PA-025, blaNDM) was above 8 µg/mL. Further, the minimum inhibitory concentration (MIC) (PA-027, blaIMP) is above 8 µg/mL; the MIC (PA-028, blaNDM) is above 8 µg/mL; the MIC (PA-029, blaIMP) was above 8 µg/mL; the minimum inhibitory concentration (MIC) (PA-030, blaIMP) was above 8 µg/mL; the MIC (PA-034, blaNDM) was above 8 µg/mL; the MIC (PA-036, blaNDM) was above 8 µg/mL. In addition, the MIC is above 8 µg/mL (PA-038, blaNDM); at most 2 µg/mL (PA-039, blaNDM); above 8 µg/mL (PA-044, blaNDM).
`C[C@@H](O)[C@H]1C(=O)N2C(C(=O)O)=C(SCCN=CN)C[C@H]12` [IPM, imipenem] gave an MIC (PA-001, blaNDM) above 8 µg/mL; an MIC (PA-002, blaIMP) above 8 µg/mL; an MIC (PA-007, blaNDM) above 8 µg/mL; an MIC (PA-008, blaNDM) above 8 µg/mL; an MIC (PA-011, blaNDM) above 8 µg/mL; an MIC (PA-012, blaNDM) above 8 µg/mL. The MIC was above 8 µg/mL (PA-016, blaIMP); above 8 µg/mL (PA-017, blaNDM); above 8 µg/mL (PA-019, blaNDM); above 8 µg/mL (PA-020, blaNDM); above 8 µg/mL (PA-023, blaNDM); above 8 µg/mL (PA-025, blaNDM). Besides, the MIC is above 8 µg/mL (PA-027, blaIMP); above 8 µg/mL (PA-028, blaNDM); above 8 µg/mL (PA-029, blaIMP); above 8 µg/mL (PA-030, blaIMP); above 8 µg/mL (PA-034, blaNDM); above 8 µg/mL (PA-036, blaNDM). Also, the MIC (PA-038, blaNDM) was above 8 µg/mL; the MIC (PA-039, blaNDM) was above 8 µg/mL; the MIC (PA-044, blaNDM) was above 8 µg/mL.
`C[C@@H](O)[C@H]1C(=O)N2C(C(=O)O)=C(S[C@@H]3CN[C@H](C(=O)N(C)C)C3)[C@H](C)[C@H]12` [MEM, meropenem]: the MIC was above 32 µg/mL (PA-001, blaNDM); above 32 µg/mL (PA-002, blaIMP); above 32 µg/mL (PA-007, blaNDM); above 32 µg/mL (PA-008, blaNDM); above 32 µg/mL (PA-011, blaNDM); above 32 µg/mL (PA-012, blaNDM). Besides, the MIC reads like this: (PA-016, blaIMP) above 32 µg/mL; (PA-017, blaNDM) above 32 µg/mL; (PA-019, blaNDM) above 32 µg/mL; (PA-020, blaNDM) above 32 µg/mL; (PA-023, blaNDM) above 32 µg/mL; (PA-025, blaNDM) above 32 µg/mL. In addition, the MIC is above 32 µg/mL (PA-027, blaIMP); above 32 µg/mL (PA-028, blaNDM); above 32 µg/mL (PA-029, blaIMP); above 32 µg/mL (PA-030, blaIMP); above 32 µg/mL (PA-034, blaNDM); above 32 µg/mL (PA-036, blaNDM). For the same compound, the MIC by setting is: (PA-038, blaNDM) above 32 µg/mL; (PA-039, blaNDM) above 32 µg/mL; (PA-044, blaNDM) above 32 µg/mL.
As for colistin [CST], the “MIC Value” is at most 1 µg/mL (PA-001, blaNDM); at most 1 µg/mL (PA-002, blaIMP); at most 1 µg/mL (PA-007, blaNDM); at most 1 µg/mL (PA-008, blaNDM); at most 1 µg/mL (PA-011, blaNDM); at most 1 µg/mL (PA-012, blaNDM). Moreover, the “MIC Value” was at most 1 µg/mL (PA-016, blaIMP); at most 1 µg/mL (PA-017, blaNDM); at most 1 µg/mL (PA-019, blaNDM); at most 1 µg/mL (PA-020, blaNDM); at most 1 µg/mL (PA-023, blaNDM); at most 1 µg/mL (PA-025, blaNDM). Further, the “MIC Value” by setting is: (PA-027, blaIMP) at most 1 µg/mL; (PA-028, blaNDM) at most 1 µg/mL; (PA-029, blaIMP) at most 1 µg/mL; (PA-030, blaIMP) at most 1 µg/mL; (PA-034, blaNDM) at most 1 µg/mL; (PA-036, blaNDM) at most 1 µg/mL. The “MIC Value” was at most 1 µg/mL (PA-038, blaNDM); at most 1 µg/mL (PA-039, blaNDM); at most 1 µg/mL (PA-044, blaNDM).
